Experimental data published in patent publication US10995091B2 (Proximagen, LLC, priority 2010, dated 2021).
Counter-ions that a name gives are not always drawn.

target: T1, Human CXCR4 transfected HEK293 cells (Homo sapiens, UniProt P61073); assay: CXCR4 functional calcium assay (calcium flux FLIPR, antagonism of SDF1 response); type: cell-based; conditions: CXCR4 functional activity, antagonism of SDF1 (EC50 concentration), read-out: CXCR4 fKi
T1 construct: expressed in transfected cells; host or cells: HEK293
Outline: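 Dose-dependent antagonism of the SDF1 response was read by FLIPR as Fluo-4 calcium signal (2 μM dye) in CXCR4-expressing human HEK293 cells, in HBSS with probenecid, BSA and HEPES at pH 7.4 and 37° C. Test compound was given before an EC50-level SDF1 challenge. Curves were then fitted.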

T1 sequence (P61073 whole entry): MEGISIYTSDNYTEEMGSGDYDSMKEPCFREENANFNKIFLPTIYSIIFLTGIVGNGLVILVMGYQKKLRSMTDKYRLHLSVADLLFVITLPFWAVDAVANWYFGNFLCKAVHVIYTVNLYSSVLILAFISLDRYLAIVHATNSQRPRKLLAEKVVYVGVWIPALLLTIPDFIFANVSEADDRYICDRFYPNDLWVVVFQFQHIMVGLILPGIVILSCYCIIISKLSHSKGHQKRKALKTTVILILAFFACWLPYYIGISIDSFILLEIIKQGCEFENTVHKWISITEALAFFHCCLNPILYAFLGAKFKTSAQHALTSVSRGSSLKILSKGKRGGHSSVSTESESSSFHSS

SMILES | Ki [nM]
Cc1ccc(N2CCCN(C3CCN(Cc4ccccc4Cl)CC3)CC2)nc1 [Example 263, 1-{1-[(2-Chlorophenyl)methyl]piperidin-4-yl}-4-(5-methylpyridin-2-yl)-1,4-diazepane] | 100 to 500
CC(C)N1CCC(N2CCCN(c3cccc(-c4nc5ccc(C#N)cc5[nH]4)n3)CC2)CC1 [Example 149, 2-(6-{4-[1-(Propan-2-yl)piperidin-4-yl]-1,4-diazepan-1-yl}pyridine-2-yl)-1H-1,3-benzodiazole-6-carbonitrile] | < 20
Cc1cccc2nc(-c3cccc(N4CCCN(C5CCN(C(C)C)CC5)CC4)n3)[nH]c12 [Example 143, 7-Methyl-2-(6-{4-[1-(propan-2-yl)piperidin-4-yl]-1,4-diazepan-1-yl}pyridine-2-yl)-1H-1,3-benzodiazole] | 100 to 500
CC(C)N1CCC(N2CCCN(c3cccc(-c4ncc(-c5ccccc5)[nH]4)n3)CC2)CC1 [Example 114, 1-[6-(4-Phenyl-1H-imidazol-2-yl)pyridine-2-yl]-4-[1-(propan-2-yl)piperidin-4-yl]-1,4-diazepane] | 100 to 500
Cc1nc(-c2cccc(NCCNC3CCN(C4CCCC4)CC3)n2)[nH]c1C1CC1 [Example 232, 1-Cyclopentyl-N-(2-{[6-(5-cyclopropyl-4-methyl-1H-imidazol-2-yl)pyridin-2-yl]amino}ethyl)piperidin-4-amine] | 100 to 500
Cc1nc(-c2cccc(N3CCCN(C4CCN(C(C)C)CC4F)CC3)n2)[nH]c1C1CC1 (stereo not shown) [Example 213, 1-[6-(4-Cyclopropyl-5-methyl-1H-imidazol-2-yl)pyridin-2-yl]-4-[3-fluoro-1-(propan-2-yl)piperidin-4-yl]-1,4-diazepane] | 20 to 100
c1cc(NCCNCC2CCN(C3CCCC3)C2)nc(-c2ncc(C3CC3)[nH]2)c1 (stereo not shown) [Example 229, [(1-Cyclopentylpyrrolidin-3-yl)methyl](2-{[6-(5-cyclopropyl-1H-imidazol-2-yl)pyridin-2-yl]amino}ethyl)amine] | 100 to 500
[2H]C1([2H])CCN(c2cccc(C(=O)Nc3ccncc3)n2)CC(C)N1C1CCN(Cc2ccccc2Cl)CC1 (stereo not shown) [Example 206, 6-(4-{1-[(2-Chlorophenyl)methyl]piperidin-4-yl}-5,5-dihydrogenio-3-methyl-1,4-diazepan-1-yl)-N-(pyridin-4-yl)pyridine-2-carboxamide] | < 20
CC(C)N1CCC(N2CCCN(c3cccc(C(=O)Nc4ccncc4)n3)CC2)C(F)C1 (stereo not shown) [Example 210, 6-{4-[3-Fluoro-1-(propan-2-yl)piperidin-4-yl]-1,4-diazepan-1-yl}-N-(pyridin-4-yl)pyridine-2-carboxamide] | < 20
[2H]C1([2H])CCN(c2cccc(C(=O)Nc3ccncc3)n2)CCN1C1CCN(C2CCCC2)CC1 [Example 191, 6-[4-(1-Cyclopentylpiperidin-4-yl)-5,5-dihydrogenio-1,4-diazepan-1-yl]-N-(pyridin-4-yl)pyridine-2-carboxamide] | < 20
CC(C)N1CCC(N2CCCN(c3cccc(C(=O)NCc4cccnc4)n3)CC2)CC1C (stereo not shown) [Example 215, 6-{4-[2-Methyl-1-(propan-2-yl)piperidin-4-yl]-1,4-diazepan-1-yl}-N-(pyridin-3-ylmethyl)pyridine-2-carboxamide] | 20 to 100
COc1ccc(C(=O)NCC2CC2)nc1N1CCCN(C2CCN(Cc3ccccc3Cl)CC2)CC1 [Example 270, 6-(4-{1-[(2-Chlorophenyl)methyl]piperidin-4-yl}-1,4-diazepan-1-yl)-N-(cyclopropylmethyl)-5-methoxypyridine-2-carboxamide] | 100 to 500
Cc1nc(-c2cccc(N3CCN(C4CCCN(C5CCCC5)CC4)CC3)n2)[nH]c1C1CC1 (stereo not shown) [Example 245, 1-Cyclopentyl-4-{4-[6-(5-cyclopropyl-4-methyl-1H-imidazol-2-yl)pyridin-2-yl]piperazin-1-yl}azepane] | 20 to 100
CC(C)N1CCC(N2CCCN(c3cccc(-c4noc(C(C)(C)C)n4)n3)CC2)CC1 [Example 159, 1-[6-(5-tert-Butyl-1,2,4-oxadiazol-3-yl)pyridine-2-yl]-4-[1-(propan-2-yl)piperidin-4-yl]-1,4-diazepane] | 500 to 1000
CC(C)N1CCC(N2CCCN(c3cccc(-c4noc(-c5ccccn5)n4)n3)CC2)CC1 [Example 165, 1-[1-(Propan-2-yl)piperidin-4-yl]-4-{6-[5-(pyridine-2-yl)-1,2,4-oxadiazol-3-yl]pyridine-2-yl}-1,4-diazepane tetrahydrochloride] | 100 to 500
CC(C)N1CCCC(N(C)CCN(C)c2cccc(C(=O)Nc3ccncc3)n2)CC1 (stereo not shown) [Example 238, 6-[Methyl(2-{methyl[1-(propan-2-yl)azepan-4-yl]amino}ethyl)amino]-N-(pyridin-4-yl)pyridine-2-carboxamide] | 100 to 500
O=C(NCc1cocn1)c1cccc(N2CCCN(C3CCN(Cc4ccccc4Cl)CC3)CC2)n1 [Example 58, 6-(4-{1-[(2-Chlorophenyl)methyl]piperidin-4-yl}-1,4-diazepan-1-yl)-N-(1,3-oxazol-4-ylmethyl)pyridine-2-carboxamide] | 100 to 500
O=C(Nc1ccncc1)c1cccc(N2CC[C@@H](NCC3CCN(C4CCCC4)CC3)C2)n1 [Example 228, 6-[(3R)-3-{[(1-Cyclopentylpiperidin-4-yl)methyl]amino}pyrrolidin-1-yl]-N-(pyridin-4-yl)pyridine-2-carboxamide] | < 20
CC(C)N1CCC(N2CCCN(c3cccc(-c4nc5ccccc5o4)n3)CC2)CC1 [Example 152, 2-(6-{4-[1-(Propan-2-yl)piperidin-4-yl]-1,4-diazepan-1-yl}pyridine-2-yl)-1,3-benzoxazole] | 100 to 500

Further lines, results first:

Ki [nM] | SMILES
500 to 1000 | O=C(NCC1CC1)c1cccc(N2CCCN(C3CCN(C4CC4)CC3)CC2)n1 [Example 62, N-(Cyclopropylmethyl)-6-[4-(1-cyclopropylpiperidin-4-yl)-1,4-diazepan-1-yl]pyridine-2-carboxamide]
100 to 500 | CC(C)N1CCC(N2CCCN(c3cccc(C(=O)NCCF)n3)CC2)CC1 [Example 8, N-(2-Fluoroethyl)-6-{4-[1-(propan-2-yl)piperidin-4-yl]-1,4-diazepan-1-yl}pyridine-2-carboxamide]
20 to 100 | CC(C)N1CCC(N2CCCN(c3cccc(C(=O)Cc4ccccc4)n3)CC2)CC1 [Example 220, 2-Phenyl-1-(6-{4-[1-(propan-2-yl)piperidin-4-yl]-1,4-diazepan-1-yl}pyridin-2-yl)ethan-1-one]
100 to 500 | CC(C)N1CCC(N2CCCN(c3cccc(C(=O)NCc4cccnc4)n3)CC2)C(F)C1 (stereo not shown) [Example 185, 6-{4-[3-Fluoro-1-(propan-2-yl)piperidin-4-yl]-1,4-diazepan-1-yl}-N-(pyridin-3-ylmethyl)pyridine-2-carboxamide]
100 to 500 | C[C@H](N1CCC(N2CCCN(c3cccc(C(=O)NCC4CC4)n3)CC2)CC1)C(F)(F)F [Example 69, N-(Cyclopropylmethyl)-6-(4-{1-[(2S)-1,1,1-trifluoropropan-2-yl]piperidin-4-yl}-1,4-diazepan-1-yl)pyridine-2-carboxamide]
100 to 500 | CCCN1CCC(N2CCCN(c3cccc(C(=O)NCC4CC4)n3)CC2)CC1 [Example 61, N-(Cyclopropylmethyl)-6-[4-(1-propylpiperidin-4-yl)-1,4-diazepan-1-yl]pyridine-2-carboxamide]
20 to 100 | [2H]C1([2H])CCN(C2CCN([C@@H](C)C(F)(F)F)CC2)CCN1c1cccc(C(=O)Nc2ccncc2)n1 [Example 178, 6-(7,7-Dihydrogenio-4-{1-[(2S)-1,1,1-trifluoropropan-2-yl]piperidin-4-yl}-1,4-diazepan-1-yl)-N-(pyridine-4-yl)pyridine-2-carboxamide]
100 to 500 | CC(C)N1CCC(N2CCCN(c3cccc(-c4nc5ccc(C(F)(F)F)cc5[nH]4)n3)CC2)CC1 [Example 144, 2-(6-{4-[1-(Propan-2-yl)piperidin-4-yl]-1,4-diazepan-1-yl}pyridine-2-yl)-6-(trifluoromethyl)-1H-1,3-benzodiazole]
20 to 100 | CCCCNC(=O)c1cccc(N2CCCN(C3CCN([C@@H](C)C(F)(F)F)CC3)CC2)n1 [Example 93, N-Butyl-6-(4-{1-[(2S)-1,1,1-trifluoropropan-2-yl]piperidin-4-yl}-1,4-diazepan-1-yl)pyridine-2-carboxamide]
100 to 500 | CC(C)N1CCC(N2CCCN(c3cccc(C(=O)Nc4ccc(Cl)cc4)n3)CC2)CC1 [Example 25, N-(4-Chlorophenyl)-6-{4-[1-(propan-2-yl)piperidin-4-yl]-1,4-diazepan-1-yl}pyridine-2-carboxamide]
500 to 1000 | Cc1nc(-c2cccc(N3CCCN(C4CCN(C(C)C)CC4)CC3)n2)no1 [Example 153, 1-[6-(5-Methyl-1,2,4-oxadiazol-3-yl)pyridin-2-yl]-4-[1-(propan-2-yl)piperidin-4-yl]-1,4-diazepane]
500 to 1000 | Cc1cn[nH]c1-c1cccc(N2CCCN(C3CCN(C(C)C)CC3)CC2)n1 [Example 173, 1-[6-(4-Methyl-1H-pyrazol-3-yl)pyridin-2-yl]-4-[1-(propan-2-yl)piperidin-4-yl]-1,4-diazepane Trihydrochloride]
100 to 500 | C[C@H](c1ccc(F)cc1)N1CCC(N2CCCN(c3cccc(C(=O)NCC4CC4)n3)CC2)CC1 [Example 75, N-(Cyclopropylmethyl)-6-(4-{1-[(1R)-1-(4-fluorophenyl)ethyl]piperidin-4-yl}-1,4-diazepan-1-yl)pyridine-2-carboxamide]
< 20 | [2H]C1([2H])CCN(c2cccc(C(=O)Nc3ccncc3)n2)CCN1C1CCN([C@@H](C)C(F)(F)F)CC1 [Example 190, 6-(5,5-Dihydrogenio-4-{1-[(2S)-1,1,1-trifluoropropan-2-yl]piperidin-4-yl}-1,4-diazepan-1-yl)-N-(pyridin-4-yl)pyridine-2-carboxamide]
20 to 100 | CCCNC(=O)c1cccc(N2CCCN(C3CCN(C(C)C)CC3)CC2)n1 [Example 5, 6-{4-[1-(Propan-2-yl)piperidin-4-yl]-1,4-diazepan-1-yl}-N-propylpyridine-2-carboxamide]
